# What was measured:
# [1] = tested on: Human Skeletal Muscle Myoblasts (HSMM); assay: Resveratrol inhibition of PEP-mediated HSMM proliferation; format: cell-based
# Procedure: The mechanism of PEP-induced HSMM proliferation was interrogated using resveratrol (InvivoGen, San Diego, CA), an NF-κB inhibitor, in culture grown with 2.5×10^11 PEP exosomes/mL. The concentration of PEP exosomes was chosen both because of its optimal impact on the growth of cultured HSMMs and to match the empirically determined timed release PEP concentration from TISSEEL (Baxter International, Inc., Deerfield, IL) reconstituted with 1×10^12 PEP exosomes/mL. HSMM were plated on a 96-well plate at 10,000 cells/well overnight. Resveratrol was incubated at concentrations ranging from 50 μM to 500 μM for an hour before adding 2.5×10^11 PEP exosomes/mL to each well. Data is generated from live cell proliferation analysis (INCUCYTE, Essen BioScience, Inc., Ann Arbor, MI) by acquiring phase images (10× lens; five images/well in 96-well plate with three wells/condition). Western blotting for expression of NF-κB p65 at 72 hours post inhibition was quantified and normalized (IMAGE STUDIO software, LI-COR Biosciences, Inc., Lincoln, NE) using a total protein stain.
# [2] = tested on: NF-κB p65; assay: Western blot of NF-κB p65 expression in HSMM cells; format: cell-based, human; details: increasing resveratrol 50 μM to 500 μM with 2.5×10^11 exosomes/mL PEP, 72 hours
# Procedure: Western blotting for expression of exosome markers was conducted in two different manners: traditional and Li-Cor. In the traditional method, equal amounts of protein were loaded into each lane and transferred to a PVDF membrane. The membranes were blocked in 5% nonfat dried milk diluted in TBST and incubated with primary antibodies against CD63, CD9, and Flotillin (Table 1). HIRP-conjugated secondary antibodies were used to incubate the membranes and were developed with enhanced chemiluminescence (AERSHAM, GE Healthcare, Chicago, TL). Loading was standardized to a GAPDH loading control. In the Li-Cor digital fluorescence method (Li-Cor Biosciences, Inc., Lincoln, NE), equal amounts of protein were loaded into each lane and transferred to a nitrocellulose membrane. The membranes were blocked in Li-Cor TBS Blocking Buffer and incubated with primary antibodies against NF-κB p65, and PD-L1. Secondary antibodies at 680 nm and 800 nm were used to fluorescently image the membranes using an imaging system (Odyssey CLx, Li-Cor Biosciences, Inc., Lincoln, NE). Digital fluorescent intensity was determined by IMAGE STUDIO software (Li-Cor Biosciences, Inc., Lincoln, NE) and loading was standardized by total protein stain (Li-Cor Biosciences, Inc., Lincoln, NE) for whole lane protein digital fluorescence and analyzed by EMPIRIA STUDIO software (Li-Cor Biosciences, Inc., Lincoln, NE). […]
smiles,measurement,setting,value
Oc1ccc(C=Cc2cc(O)cc(O)c2)cc1 [resveratrol],inhibition at 250 µM,"[1]; Homo sapiens, Myoblast, 250 μM resveratrol, 2.5×10^11 exosomes/mL PEP, p<0.0001 vs PEP",~50%
same,inhibition at 500 µM,"[1]; Homo sapiens, Myoblast, 500 μM resveratrol, 2.5×10^11 exosomes/mL PEP, p<0.0001 vs PEP",~100%
same,inhibition of myoblast growth,"[1]; low doses of resveratrol (e.g., 50 μM), with PEP",not significantly inhibited
same,NF-κB expression in PEP-treated HSMM following resveratrol treatment,[2],dose dependent decrease

# — patent publication US20250018088A1, “COMPOSITIONS AND METHODS FOR REPAIRING DAMAGE TO SKELETAL MUSCLE” (MAYO FOUNDATION FOR MEDICAL EDUCATION AND RESEARCH, priority 2021, published 2025)
